Counter-ions that a name gives are not always drawn.
Legend:
[1] = target: T1, recombinant human PLA2G2A (sPLA2) (Homo sapiens, UniProt P14555); assay: Oleic acid release from phospholipid-loaded stenfilcon A lenses in ATF with and without sPLA2 (digestion assay, LCMS); type: biochemical; conditions: 35±2° C., 4 hours; for Oleic acid peak area in ATF + sPLA2: ATF with 50 ppm recombinant human PLA2G2A; for Oleic acid peak area in ATF + sPLA2 / Oleic acid peak area in ATF: 4 mm piece of loaded stenfilcon A lens, 100 μL; for Oleic acid peak area in ATF: ATF without sPLA2
T1 construct: purchased Creative BioMart PLA2G2A-669H
T1 sequence (P14555 21-144): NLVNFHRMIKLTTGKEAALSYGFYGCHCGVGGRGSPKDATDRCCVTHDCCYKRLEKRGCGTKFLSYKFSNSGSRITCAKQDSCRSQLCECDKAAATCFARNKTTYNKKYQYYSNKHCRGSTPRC
Experimental: The phospholipids shown in Table 1 were obtain from Avanti Polar Lipids. 3 mg/ml loading solutions of the phospholipids shown in Table 1 were prepared by adding 2.4 mL ethanol to 9 mg of phospholipid, sonicating (up to 15 minutes) then adding 0.6 mL DI water and sonicating again (up to 15 minutes) to dissolve the phospholipid.
Hydrated contact lenses made from stenfilcon A were washed three times in 3 mL purified water for 30 minutes each time. Each washed lens was placed in 3 mL of a phospholipid loading solution and incubated at room temperature with gentle shaking at 75 rpm for 3 hours. The loaded lenses were then rinsed and hydrated in several exchanges of DI water. The lenses were packaged in a buffered saline contact lens packaging solution and autoclaved.
An artificial tear fluid (ATF) was prepared by adding the first three ingredients listed in Table 2 to a clean class vial and then adding 30 mL of the fourth ingredient.
After autoclave each lens was removed from its package and place in a 6 mL glass vial containing 5 mL of the ATF at room temperature on a shaker at 125 rpm overnight to elute any free oleic acid that may be present in the lens.
Each lens was rinsed in a 6 ml glass vial containing a fresh aliquot of 5 mL ATF for 30 minutes prior to running the digestion assay.
A 50 ppm solution of sPLA2 was prepared in ATF by adding 200 μl ATF to a tube containing 10 μg recombinant human PLA2G2A (Creative BioMart, Cat. No. PLA2G2A-669H). The solution is referred to as ATF+sPLA2. Two 4 mm pieces were cut from each lens. One piece of each lens was placed in a tube with 100 μL ATF and the other piece was placed in a tube containing 100 μL ATF+sPLA2. The tubes were incubated at 35±2° C. for 4 hours with no shaking.
50 μl of the release media from each lens at T=4 hr was transferred to HPLC vials and 500 μl isopropanol (IPA) was added and mixed well. T=0 hr HPLC vials were also prepared (50 μl ATF+500 μl IPA). All vials were sonicated for 15 minutes and centrifuged. The supernatant was removed for LCMS injection.
The supernatants were injected on an LCMS instrument equipped with an ACQUITY UPLC BEH C18 […], 2.1 mm×15 cm column and running a mobile phase gradient from 65% A to 90% B at a flow rate of 0.35 mL/min with A=40% acetonitrile in water with 10 mM ammonium acetate and 0.2% (v/v) ammonium hydroxide, and B=10% acetonitrile in IPA with 10 mM ammonium acetate and 0.2% (v/v) ammonium hydroxide. The mass spec detector is run at negative electrospray mode. The peaks for oleic acid (OA) in the supernatants were measured (m/z trace=281.24). The ratio of OA peak area in ATF with and without sPLA2 was calculated.

[2] = tested on: sPLA2 enzymes found in human tears; assay: Susceptibility to digestion by sPLA2 enzymes found in human tears when present in a silicone hydrogel contact lens body; type: biochemical; conditions: phospholipid present in a silicone hydrogel contact lens body
Excerpt: To achieve these and other advantages, and in accordance with the purposes of the present invention, as embodied and broadly described herein, the present invention, in part relates to a hydrogel contact lens comprising a polymeric lens body loaded with 2-oleoyl phospholipid. The 2-oleoyl phospholipid is advantageously susceptible to digestion by secretory phospholipase 2-acylhydrolase (sPLA2) enzymes found in human tears, especially group IIA secretory phospholipase 2-acylhydrolase (sPLA2-IIA). The 2-oleoyl phospholipid present in the contact lens body is advantageously susceptible to digestion by sPLA2 enzymes found in human tears, especially sPLA2-IIA when the 2-oleoyl phospholipid is present in the polymeric lens body of a silicone hydrogel contact lens, such as a stenfilcon A contact lens. […] For the avoidance of doubt, while the determination of whether a 2-oleoyl phospholipid is susceptible to digestion by sPLA2 enzymes may be carried out by loading the 2-oleoyl phospholipid to a stenfilcon A lens, the contact lens of the invention, including contact lenses comprising 2-oleoyl phospholipid that have been determined to be susceptible to digestion by sPLA2 enzymes, need not be stenfilcon A lenses and may be silicone hydrogel lenses of any formulation. […]

Structure (SMILES) | Ratio of OA peak area in ATF with and without sPLA2 [1] | Oleic acid peak area in ATF + sPLA2 [1] | Oleic acid peak area in ATF [1] | Susceptibility to digestion by sPLA2 enzymes found in human tears [2]
CCCCCCCC/C=C\CCCCCCCC(=O)OC[C@H](COP(=O)(O)OCCN)OC(=O)CCCCCCC/C=C\CCCCCCCC [DOPE, 1,2-dioleoyl-sn-glycero-3-phosphoethanolamine] | 4.6 | 2127 | 463 | –
CCCCCCCC/C=C\CCCCCCCC(=O)OC[C@H](COP(=O)([O-])OCC[N+](C)(C)C)OC(=O)CCCCCCC/C=C\CCCCCCCC [DOPC, 1,2-dioleoyl-sn-glycero-3-phosphocholine, reference compound] | 1.2 | 125 | 102 | –
CCCCCCCC/C=C\CCCCCCCC(=O)OC[C@H](COP(=O)([O-])OCC(O)CO)OC(=O)CCCCCCC/C=C\CCCCCCCC.[Na+] (mixture of isomers) [DOPG, 1,2-dioleoyl-sn-glycero-3-phospho-(1′-rac-glycerol) (sodium salt)] | 279 | 9958 | 36 | –
CCCCCCCCCCCCCC(=O)OC[C@H](COP(=O)([O-])OCC[N+](C)(C)C)OC(=O)CCCCCCCCCCCCC [DMPC, 1,2-dimyristoyl-sn-glycero-3-phosphocholine] | – | – | – | not be susceptible to digestion
CCCCCCCC/C=C\CCCCCCCC(=O)OC[C@H](COP(=O)(O)OC[C@H](N)C(=O)O)OC(=O)CCCCCCC/C=C\CCCCCCCC [DOPS, 1,2-dioleoyl-sn-glycero-3-phospho-L-serine (sodium salt)] | 16.4 | 1437 | 88 | –
